For the assay, the target named is human DGKζ (Homo sapiens (Human), UniProt Q13574). Briefly: Human DGKζ kinase activity inhibition assay (ADP-Glo). It is filed as biochemical. Conditions: in vitro human DGKζ kinase activity inhibition assay; read-out: IC50. In a few lines:
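Enzyme was C-terminally FLAG-tagged full-length recombinant human DGKζ from baculovirus-infected insect cells. Substrate preparation used octyl-β-D-glucopyranoside in 50 mM MOPS pH 7.4 with sonication; ADP generated was quantified by ADP-Glo luminescence as activity measure.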
On the technique in general: ADP-Glo first removes unused ATP, then detects ADP through luciferase.

One may read the IC50 as the concentration that gives 50% inhibition.

The structures appear in SMILES notation.

human DGKζ, sequence (Q13574 other isoform, or with tags, fused parts or gaps): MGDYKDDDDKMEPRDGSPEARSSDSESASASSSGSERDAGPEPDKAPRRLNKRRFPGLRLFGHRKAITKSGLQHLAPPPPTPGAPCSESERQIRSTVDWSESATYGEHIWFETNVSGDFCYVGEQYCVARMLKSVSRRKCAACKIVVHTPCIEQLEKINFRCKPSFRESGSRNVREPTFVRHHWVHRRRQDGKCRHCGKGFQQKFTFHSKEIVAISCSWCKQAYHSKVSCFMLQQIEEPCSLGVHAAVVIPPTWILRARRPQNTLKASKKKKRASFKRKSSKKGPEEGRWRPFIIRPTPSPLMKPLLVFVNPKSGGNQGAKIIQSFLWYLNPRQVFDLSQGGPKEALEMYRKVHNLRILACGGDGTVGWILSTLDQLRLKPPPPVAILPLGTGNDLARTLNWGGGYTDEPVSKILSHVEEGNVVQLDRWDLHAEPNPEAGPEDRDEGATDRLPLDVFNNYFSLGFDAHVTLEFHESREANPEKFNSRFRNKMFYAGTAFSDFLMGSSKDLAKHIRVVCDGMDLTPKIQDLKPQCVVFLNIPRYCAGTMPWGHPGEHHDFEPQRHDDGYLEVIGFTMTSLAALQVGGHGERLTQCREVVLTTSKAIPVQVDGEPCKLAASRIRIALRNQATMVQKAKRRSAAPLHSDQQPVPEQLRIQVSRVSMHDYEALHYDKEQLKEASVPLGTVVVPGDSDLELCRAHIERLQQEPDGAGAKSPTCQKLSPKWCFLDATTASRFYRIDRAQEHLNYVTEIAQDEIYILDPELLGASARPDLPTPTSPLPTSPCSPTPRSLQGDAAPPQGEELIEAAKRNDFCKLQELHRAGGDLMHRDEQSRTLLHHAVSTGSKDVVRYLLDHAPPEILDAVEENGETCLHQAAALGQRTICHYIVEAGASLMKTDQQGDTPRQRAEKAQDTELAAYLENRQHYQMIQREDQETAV

For the compound `Cc1cc(C(=O)c2sc(N(c3ccc(F)cc3)C(C)C(N)=O)nc2N)ccn1` (single isomer, unassigned) [Example 187.2, 2-(N-[4-amino-5-(2-methylpyridine-4-carbonyl)thiazol-2-yl]-4-fluoro-anilino)propanamide], the IC50 is > 20000 nM.

In the case of `CC(C(N)=O)N(c1ccc(F)cc1)c1nc(N)c(C(=O)c2ccc(O)cc2)s1` (single isomer, unassigned) [Example 286, 2-(N-[4-amino-5-(4-hydroxybenzoyl)thiazol-2-yl]-4-fluoro-anilino)propanamide (single enantiomer)], the IC50 was found to be 31 nM.

Regarding `CC(C(N)=O)N(c1ccc(O)cc1)c1nc(N)c(C(=O)c2ccc(OC(F)F)cc2)s1` (single isomer, unassigned) [Example 291, 2-(N-[4-amino-5-[4-(difluoromethoxy)benzoyl]thiazol-2-yl]-4-hydroxy-anilino)propanamide (single enantiomer)], the IC50 was determined as 178 nM.

For `CCOC(=O)COc1ccc(C(=O)c2sc(N(c3ccc(F)cc3)C(C)C(N)=O)nc2N)cc1` (single isomer, unassigned; enantiomer 1) [Example 81.1, ethyl 2-[4-[4-amino-2-(4-fluoro-N-[2-amino-1-methyl-2-oxo-ethyl]anilino)thiazole-5-carbonyl]phenoxy]acetate (enantiomer 1)], the IC50 amounted to 1020 nM.

With `CC(C(N)=O)N(c1ccc(F)cc1)c1nc(N)c(C(=O)c2ccc(N3CCC(C)(C#N)CC3)nc2)s1` (single isomer, unassigned; enantiomer 1) [Example 285.1, 2-(N-[4-amino-5-[6-(4-cyano-4-methyl-1-piperidyl)pyridine-3-carbonyl]thiazol-2-yl]-4-fluoro-anilino)propanamide (enantiomer 1)], the half-inhibitory concentration (IC50) was determined as 34 nM.

For the compound `CC(C(N)=O)N(c1ccc(F)c(F)c1)c1nc(N)c(C(=O)c2ccc(O)cc2)s1` (single isomer, unassigned; enantiomer 1) [Example 287, 2-(N-[4-amino-5-(4-hydroxybenzoyl)thiazol-2-yl]-3,4-difluoro-anilino)propanamide (enantiomer 1)], the IC50 is 18 nM.

`CC(C(N)=O)N(c1ccc(Cl)c(F)c1)c1nc(N)c(C(=O)c2ccc(O)cc2)s1` (single isomer, unassigned; enantiomer 1) [Example 289, 2-(N-[4-amino-5-(4-hydroxybenzoyl)thiazol-2-yl]-4-chloro-3-fluoro-anilino)propanamide (enantiomer 1)]: the IC50 came to 10 nM.

`CCOC(=O)COc1ccc(C(=O)c2sc(N(c3ccc(F)cc3)C(C)C(N)=O)nc2N)cc1` (single isomer, unassigned; enantiomer 2) [Example 81.2, ethyl 2-[4-[4-amino-2-(4-fluoro-N-[2-amino-1-methyl-2-oxo-ethyl]anilino)thiazole-5-carbonyl]phenoxy]acetate (enantiomer 2)]: the IC50 came out at 10.1 nM.

On to `CC(C(N)=O)N(c1ccc(F)cc1)c1nc(N)c(C(=O)c2ccc(N3CCC(C)(C#N)CC3)nc2)s1` (single isomer, unassigned; enantiomer 2) [Example 285.2, 2-(N-[4-amino-5-[6-(4-cyano-4-methyl-1-piperidyl)pyridine-3-carbonyl]thiazol-2-yl]-4-fluoro-anilino)propanamide (enantiomer 2)], for which the IC50 was 432 nM.

As for `CC(C(N)=O)N(c1ccc(F)c(F)c1)c1nc(N)c(C(=O)c2ccc(O)cc2)s1` (single isomer, unassigned; enantiomer 2) [Example 288, 2-(N-[4-amino-5-(4-hydroxybenzoyl)thiazol-2-yl]-3,4-difluoro-anilino)propanamide (enantiomer 2)], the IC50 worked out at 3440 nM.

Consider `CC(C(N)=O)N(c1ccc(Cl)c(F)c1)c1nc(N)c(C(=O)c2ccc(O)cc2)s1` (single isomer, unassigned; enantiomer 2) [Example 290, 2-(N-[4-amino-5-(4-hydroxybenzoyl)thiazol-2-yl]-4-chloro-3-fluoro-anilino)propanamide (enantiomer 2)], for which the IC50 stood at 936 nM.

`C[C@H](C(N)=O)N(c1ccc(F)c(F)c1)c1nc(N)c(C(=O)c2ccc(OC(F)F)cc2)s1` [Example 49.2, (R)-2-(N-[4-amino-5-[4-(difluoromethoxy)benzoyl]thiazol-2-yl]-3,4-difluoro-anilino)propanamide]: the IC50 is 2.1 nM.

With `COc1ccc(C(=O)c2sc(N(c3ccc(Cl)c(F)c3)[C@H](C)C(N)=O)nc2N)cc1` [Example 59.1, (R)-2-(N-[4-amino-5-(4-methoxybenzoyl)thiazol-2-yl]-4-chloro-3-fluoro-anilino)propanamide], the IC50 stood at 4 nM.

Turning to `C[C@H](C(N)=O)N(c1ccc(F)cc1)c1nc(N)c(C(=O)c2ccccc2)s1` [Example 61.2, (R)-2-(N-(4-amino-5-benzoyl-thiazol-2-yl)-4-fluoro-anilino)propanamide], the IC50 worked out at 108 nM.

(Values after US11964953B2, “Substituted aminothiazoles as DGKzeta inhibitors for immune activation” (Bayer Aktiengesellschaft, priority 2020, dated 2024).)
